Source: patent publication US20250304623A1, “PEPTIDES FOR INTRACELLULAR DELIVERY” (UNIVERSIDADE DE SANTIAGO DE COMPOSTELA, priority 2022, published 2025)
Starred links: 1 amine or outer side, 2 acyl side, 3 side chain; linkers in the order of their positions; H or OH if unused. Residues, ends and D or L forms follow the SMILES beside them. Groups on a side chain read outwards from the residue. *: point of attachment. Glutaryl = O=C(CCCC(=O)[*:2])[*:1]; NHNH2 = NN*

Tests used:
Format in all cases: cell-based
[1] = tested on: HCT116 cells expressing EGFP; assay: Cas9-RNP delivery against EGFP (gene editing, plate reader), HCT116
Procedure: To generate an EGFP expressing HeLa cell line, HeLa cells were transfected with EGFP pDNA (pEGFP-C1, Clontech) and stable transfectants were selected with 400 μg/mL of G-418 (Millipore). Green clones were selected by epifluorescence microscopy and tested for EGFP expression stability through several passages. […] All other EGFP-expressing cell lines were obtained in a similar way from parent non-EGFP-expressing cell lines.
Cells expressing EGFP were seeded in a 96 well plate the day before the experiment at a concentration of 50,000 cell/mL (100 μL/w) in DMEM+10% FBS+1% Gln-Abt. For robotic library screening, the delivery of Cas9-RNP against EGFP (RNP designed to knock-out the gene encoding for the enhanced green fluorescent protein (EGFP)) was performed. For RNP assembly, 9.2 μL of crRNA and 9.2 μL of tracrRNA were mixed in 211.6 μL of Nuclease-Free Duplex Buffer (IDT), incubated for 5 min at 95° C. and slowly cooled at rt (see I. Lostalé-Seijo, et al. Peptide/Cas9 nanostructures for ribonucleoprotein cell membrane transport and gene edition, Chem. Sci., 2017). Cas9 protein was dissolved in DMEM at a final concentration of 4 μM and equal volumes of the RNA complex and Cas9 were mixed and incubated for 5 min at rt. 75 μL of the corresponding amphiphile concentrations were added to 5 μL of RNP at 2 μM. The mixture was shaken for 30 min at room temperature before the addition to the cells. The cell medium was aspirated, and cells were washed twice with PBS. Cells were covered with 30 μL of DMEM and 20 μL of the RNP/amphiphile complexes were added to the cells (final peptide concentrations=2.5, 5 and 10 μM; final Cas9-RNP concentration=50 nM) and incubated for 4 h. After the incubation, the medium was replaced by 100 μL of fresh DMEM supplemented with 10% FBS. The total EGFP fluorescence was quantified after 72 h in a plate reader (FIG. 2, Table 1 (right) and Table 6). All experiments were done in triplicate. […]
Tables 26-31 show the mean (triplicates) percentage of gene editing, accounted by GFP fluorescence intensity decrease (% of reduction), measured after the transfection of Cas9-RNP by different amphiphiles at different concentrations in a variety of cell lines. Background values, accounted by untreated control cells, were subtracted for processing.

[2] = tested on: Hek293 cells; assay: RLuc pDNA delivery, robotic library screening, Hek293
[3] = MTS cell viability of transfected cells, A549; settings: human; A549 cells transfected with Cas9-RNP complexes; myristoleyl, palmitoleyl or petroselinyl aldehydes
Procedure: For Cas9-RNP delivery, the efficiency on GFP silencing was around 60-70% when complexing the protein with an amphiphile comprising 7.3(Leu-His) and myristoleyl, palmitoleyl or petroselinyl aldehydes. Cells transfected with the above-indicated complexes present a cell viability higher than 80%. Viability assays were performed employing the CellTiter 96© Aqueous Non-Radioactive Cell Proliferation Assay (MTS) and following the manufacturer's instructions. Briefly, 20 μL of the combined MTS/PMS solution were added into each well of the 96-well assay plate containing cells in culture medium (100 μL). The plate was incubated 4 hours at 37° C. and 5% CO2 in a humidified atmosphere. Then, absorbance (490 nm) was recorded in an INFINITE M1000 PRO (TECAN).

[4] = tested on: Hek293 cells; assay: EGFP mRNA delivery, robotic library screening, Hek293
Procedure: Cells were seeded in a 96 well plate the day before the experiment at a concentration of 50,000 cell/mL (100 μL/w) in DMEM+10% FBS+1% Gln-Abt. For robotic library screening, the delivery of EGFP-mRNA (from TriLink, fully substituted with 5-methoxyuridine, capped and polyadenylated; TriLink, CleanCap® EGFP mRNA (5moU), ref. L-7201) in six different cell lines was performed. Amphiphilic molecule stock solutions were prepared in DMSO as described above and diluted in DMEM to afford a range of concentrations. The solutions of EGFP-mRNA/amphiphilic molecule complexes were freshly prepared prior to the transfection experiments. 35 μL of the corresponding amphiphile were added to 10 μL of a solution of EGFP-mRNA at 10 ng/μL in DMEM. The mixture was shaken for 30 min at room temperature before the addition to the cells. The cell medium was aspirated, and cells were washed with PBS twice. Cells were covered with 39 μL of DMEM and 11 μL of the complex's solution were added to the cells and incubated for 4 h (final concentration of peptide=2.5, 5 and 10 μM; final concentration of EGFP-mRNA=25 ng/well). After the incubation, the medium was replaced by 100 μL of fresh DMEM supplemented with 10% FBS. The total EGFP fluorescence was quantified after 72 h in a well plate reader. Amphiphile transfection efficiency was compared and normalized to Lipofectamine® MessengerMax efficiency (value of 1 in Tables 1-5 and 7; double underlined numbers). All experiments were done in triplicate.
Tables 1-7: RLuc (pDNA) or EGFP (mRNA) expression levels were normalized to Lipofectamine reagents (value=1) and expressed as fold-times signal increase. In the case of siRNA, the siRNA treated cells fluorescence was compared with siMOCK control fluorescence, while Cas9-RNP mediated knockout was measured against the fluorescence of untreated cells. In both siRNA and Cas9-RNP, values are expressed as % fluorescence reduction. Amphiphile concentration was 5 μM in all cases. All experiments were performed in triplicate.
Tables 14-19 show the mean (triplicates) fluorescence intensity measured after the transfection of EGFP mRNA by different amphiphiles at different concentrations in a variety of cell lines. Background fluorescence values, accounted by untreated control cells, were subtracted for processing.

Q: With `CC(=O)N[C@@H](CCCNC(=N)N)C(=O)N[C@@H](CCCCNC(=O)CCCC(=O)NN)C(=O)N[C@@H](Cc1c[nH]cn1)C(=O)N[C@@H](CCCNC(=N)N)C(=O)N[C@@H](CCCCNC(=O)CCCC(=O)NN)C(=O)N[C@@H](CCCCNC(=O)CCCC(=O)NN)C(=O)N[C@@H](Cc1c[nH]cn1)C(N)=O` [7.3(L-H), Ac-RK*HRK*K*H-NH2] (Ac-RK([Glutaryl-NHNH2])HRK([Glutaryl-NHNH2])K([Glutaryl-NHNH2])H-NH2) as the molecule, how does the “percentage of gene editing, GFP fluorescence intensity decrease (% of reduction)” value ([1]; Dodecanal, 15 μM) read?
A: The value was 3%.

Q: And the “percentage of gene editing, GFP fluorescence intensity decrease (% of reduction)” value ([1]; Myristoleyl, 15 μM)?
A: Its value is 26%.

Q: And the “percentage of gene editing, GFP fluorescence intensity decrease (% of reduction)” value ([1]; Oleyl, 5 μM)?
A: The value was −5%.

Q: What about the “percentage of gene editing, GFP fluorescence intensity decrease (% of reduction)” value ([1]; Oleyl, 10 μM) of the same molecule?
A: The value was 5%.

Q: What about the “percentage of gene editing, GFP fluorescence intensity decrease (% of reduction)” value ([1]; Palmitoleyl, 5 μM) of the same molecule?
A: The value was 28%.

Q: And the “percentage of gene editing, GFP fluorescence intensity decrease (% of reduction)” value ([1]; Palmitoleyl, 10 μM)?
A: Its value is 22%.

Q: What about the “mean luminescent intensity (RLuc pDNA)” value ([2]; Myristoleyl, 5 μM) of the same molecule?
A: Its value is 330418 RLU.

Q: And the “mean luminescent intensity (RLuc pDNA)” value ([2]; Myristoleyl, 10 μM)?
A: Its value is 145597 RLU.

Q: And the “mean luminescent intensity (RLuc pDNA)” value ([2]; Myristoleyl, 15 μM)?
A: The value was 36468 RLU.

Q: What about the “mean luminescent intensity (RLuc pDNA)” value ([2]; Palmitoleyl, 5 μM) of the same molecule?
A: Its value is 294438 RLU.

Q: And the “mean luminescent intensity (RLuc pDNA)” value ([2]; Palmitoleyl, 10 μM)?
A: Its value is 191190 RLU.

Q: What about the “mean luminescent intensity (RLuc pDNA)” value ([2]; Palmitoleyl, 15 μM) of the same molecule?
A: Its value is 87323 RLU.

Q: What about the “mean luminescent intensity (RLuc pDNA)” value ([2]; Petroselinyl, 5 μM) of the same molecule?
A: Its value is 286371 RLU.

Q: What about the “mean luminescent intensity (RLuc pDNA)” value ([2]; Petroselinyl, 10 μM) of the same molecule?
A: The value was 237379 RLU.

Q: And the “mean luminescent intensity (RLuc pDNA)” value ([2]; Petroselinyl, 15 μM)?
A: The value was 157061 RLU.

Q: And the viability [3]?
A: The viability was > 80%.

Q: What about the “mean fluorescence intensity (EGFP mRNA)” value ([4]; Dodecanal, 2.5 μM) of the same molecule?
A: Its value is 1201.

Q: What about the “mean fluorescence intensity (EGFP mRNA)” value ([4]; Dodecanal, 5 μM) of the same molecule?
A: Its value is 588.

Q: What about the “mean fluorescence intensity (EGFP mRNA)” value ([4]; Dodecanal, 10 μM) of the same molecule?
A: The value was 3588.

Q: And the “mean fluorescence intensity (EGFP mRNA)” value ([4]; Myristoleyl, 2.5 μM)?
A: Its value is 21438.

Q: And the “mean fluorescence intensity (EGFP mRNA)” value ([4]; Myristoleyl, 5 μM)?
A: The value was 11945.

Q: And the “mean fluorescence intensity (EGFP mRNA)” value ([4]; Myristoleyl, 10 μM)?
A: The value was 1626.

Q: What about the “mean fluorescence intensity (EGFP mRNA)” value ([4]; Oleyl, 2.5 μM) of the same molecule?
A: Its value is 9690.

Q: What about the “mean fluorescence intensity (EGFP mRNA)” value ([4]; Oleyl, 5 μM) of the same molecule?
A: The value was 17787.

Q: And the “mean fluorescence intensity (EGFP mRNA)” value ([4]; Oleyl, 10 μM)?
A: The value was 1626.

Q: And the “mean fluorescence intensity (EGFP mRNA)” value ([4]; Palmitoleyl, 2.5 μM)?
A: Its value is 13282.

Q: What about the “mean fluorescence intensity (EGFP mRNA)” value ([4]; Palmitoleyl, 5 μM) of the same molecule?
A: The value was 12872.

Q: What about the “mean fluorescence intensity (EGFP mRNA)” value ([4]; Palmitoleyl, 10 μM) of the same molecule?
A: The value was 4716.

Q: And the “mean fluorescence intensity (EGFP mRNA)” value ([4]; Petroselinyl, 2.5 μM)?
A: The value was 29561.

Q: And the “mean fluorescence intensity (EGFP mRNA)” value ([4]; Petroselinyl, 5 μM)?
A: Its value is 12351.

Q: What about the “mean fluorescence intensity (EGFP mRNA)” value ([4]; Petroselinyl, 10 μM) of the same molecule?
A: Its value is 6511.
